Legend:
MV4-11 cells = test: CellTiter-Blue cell viability, MV-4-11; assay type: cell-based; settings: Homo sapiens, 72 hrs exposure
Protocol: (§1) Anti-cancer efficacy of exemplary compounds of this application was assessed in vitro in different cancer cell lines. Cell viability was examined following treatment at various concentration of inhibitor (0.097656-50 μM) using a cell Titer-Blue cell viability assay. 1×10^4 cells (NHF, MV4-11, K562 and MOLM-13 cells)/well were plated in 96-well assay plates in culture medium. All cells were grown in DMEM, IMDM and RPMI-1640 supplemented with 10% FBS. After 24 hrs, test compounds and vehicle controls were added to appropriate wells so the final volume was 100 μl in each well. The cells were cultured for the desired test exposure period (72 hrs) at 37° C. and 5% CO2. The assay plates were removed from 37° C. incubator and 20 μl/well of CellTiter-Blue® Reagent was added. The plates were incubated using standard cell culture conditions for 1-4 hours and the plates were shaken for 10 seconds and record fluorescence at 560/590 nm.

K562 cells = test: CellTiter-Blue cell viability, K562; assay type: cell-based; settings: Homo sapiens, 72 hrs exposure
Protocol: as §1

MOLM-13 cells = test: CellTiter-Blue cell viability, MOLM-13; assay type: cell-based; settings: Homo sapiens, 72 hrs exposure
Protocol: as §1

tubulin = test: Tubulin polymerization assay; assay type: biochemical; settings: for % Inhibition: Vmax normalized to tubulin only control; for % D.O.P.: degree of polymerization relative to tubulin control
Protocol: A96-well half-area clear flat-bottom microplate (Corning® #3697) was pre-heated in a plate reader (Cytation 3, BioTek) at 37° C. for 15 minutes prior to the start of each assay. Tubulin polymerization buffer (80 mM PIPES pH 6.9, 2 mM MgCl2, 0.5 mM EGTA, 15% glycerol, 1 mM GTP) was prepared from stock solutions and placed on ice. Inhibitors were prepared to M concentrations in buffer (80 mM PIPES pH 6.9, 2 mM MgCl2, 0.5 mM EGTA, 5% DMSO) from DMSO stock solutions. After the assay plate was pre-warmed, 10 μL of inhibitor or buffer control was added to selected wells. Every assay contained a tubulin only negative control for normalization of data, and a batabulin positive control. The assay plate was incubated at 37° C. for 3 minutes. During this time, a frozen aliquot of tubulin (10 mg/mL) in buffer (80 mM PIPES pH 6.9, 2 mM MgCl2, 0.5 mM EGTA) was defrosted by placing in a room temperature water bath. Once thawed, 200 μL of tubulin was mixed with 420 μL ice cold tubulin polymerization buffer (3 mg/mL tubulin in 80 mM PIPES, pH 6.9, 2 mM MgCl2, 0.5 mM EGTA, 1 mM GTP, 10.2% glycerol). To a 96-well plate on ice, aliquots of 100 μL tubulin was added to each well. From this plate, 90 μL of tubulin was immediately pipetted into all sample wells of the warmed assay plate using a multi-channel pipette. The assay plate was immediately put in the reader at 37° C. and shook for 5 s with orbital shaking at medium speed. The reader recorded the absorbance at 340 nm every 15 s for 30 min.
The resulting absorbance curves were normalized by subtracting each data point by the absorbance at time 0.
The largest change in absorbance over the assay time course was also recorded and related to the tubulin control as the % degree of polymerization (% D.O.P.).

| IC50 (MV4-11 cells) | IC50 (K562 cells) | IC50 (MOLM-13 cells) | SMILES | % Inhibition (tubulin) | % D.O.P. (tubulin) |
| --- | --- | --- | --- | --- | --- |
| > 10 µM | > 10 µM | – | CN(C)S(=O)(=O)c1c(O)c(F)c(F)c(F)c1F [Compound I-3, 2,3,4,5-tetrafluoro-6-hydroxy-N,N-dimethylbenzenesulfonamide] | – | – |
| 1 to 10 µM | – | – | COc1c(F)c(F)c(F)c(F)c1S(=O)(=O)N(C)C [Compound I-4, 2,3,4,5-tetrafluoro-6-methoxy-N,N-dimethylbenzenesulfonamide] | – | – |
| – | > 10 µM | > 10 µM | CCOc1c(F)c(F)c(F)c(F)c1S(=O)(=O)N(C)C [Compound I-5, 2-ethoxy-3,4,5,6-tetrafluoro-N,N-dimethylbenzenesulfonamide] | – | – |
| 1 to 10 µM | > 10 µM | – | CN(C)S(=O)(=O)c1c(F)c(F)c(F)c(F)c1OCC(F)(F)F [Compound I-10, 2,3,4,5-tetrafluoro-N,N-dimethyl-6-(2,2,2-trifluoroethoxy)benzenesulfonamide] | – | – |
| – | > 10 µM | 1 to 10 µM | CN(C)S(=O)(=O)c1c(F)c(F)c(F)c(F)c1OCc1ccncc1 [Compound I-17, 2,3,4,5-tetrafluoro-N,N-dimethyl-6-(pyridin-4-ylmethoxy)benzenesulfonamide] | – | – |
| – | > 10 µM | 1 to 10 µM | CN(C)S(=O)(=O)c1c(F)c(F)c(F)c(F)c1OC(=O)C(C)(C)C [Compound I-20, 2-(N,N-dimethylsulfamoyl)-3,4,5,6-tetrafluorophenyl pivalate] | – | – |
| > 10 µM | > 10 µM | – | COc1ccc(NS(=O)(=O)c2c(O)c(F)c(F)c(F)c2F)cc1F [Compound I-63, 2,3,4,5-tetrafluoro-N-(3-fluoro-4-methoxyphenyl)-6-hydroxybenzenesulfonamide] | A (<10%) | A (>85%) |
| ≤ 0.1 µM | – | 0.1 to 1 µM | COc1ccc(NS(=O)(=O)c2c(F)c(F)c(F)c(F)c2OC(F)F)cc1F [Compound I-65, 2-(difluoromethoxy)-3,4,5,6-tetrafluoro-N-(3-fluoro-4-methoxyphenyl)benzenesulfonamide] | C (>20%) | B (< 85%) |
| 0.1 to 1 µM | – | 1 to 10 µM | COc1ccc(NS(=O)(=O)c2c(F)c(F)c(F)c(F)c2OCCF)cc1F [Compound I-66, 2,3,4,5-tetrafluoro-N-(3-fluoro-4-methoxyphenyl)-6-(2-fluoroethoxy)benzenesulfonamide] | B (10-20%) | B (< 85%) |
| > 10 µM | – | – | COc1ccc(NS(=O)(=O)c2c(F)c(F)c(F)c(F)c2OC2CCCC2)cc1F [Compound I-70, 2-(cyclopentyloxy)-3,4,5,6-tetrafluoro-N-(3-fluoro-4-methoxyphenyl)benzenesulfonamide] | A (<10%) | A (>85%) |
| 0.1 to 1 µM | – | – | COc1ccc(NS(=O)(=O)c2c(F)c(F)c(F)c(F)c2Oc2ccc(F)cc2)cc1F [Compound I-80, 2,3,4,5-tetrafluoro-N-(3-fluoro-4-methoxyphenyl)-6-(4-fluorophenoxy)benzenesulfonamide] | – | – |
| – | – | – | COc1ccc(CN(Cc2ccc(OC)cc2)S(=O)(=O)c2c(O)c(F)c(F)c(F)c2F)cc1 [Compound I-82, 2,3,4,5-tetrafluoro-6-hydroxy-N,N-bis(4-methoxybenzyl)benzenesulfonamide] | B (10-20%) | A (>85%) |
| ≤ 0.1 µM | – | ≤ 0.1 µM | COc1ccc(NS(=O)(=O)c2c(F)c(F)c(F)c(F)c2OC(F)(F)F)cc1F [Compound I-84, 2,3,4,5-tetrafluoro-N-(3-fluoro-4-methoxyphenyl)-6-(trifluoromethoxy)benzenesulfonamide] | C (>20%) | B (< 85%) |
| – | – | ≤ 0.1 µM | CCOc1c(F)c(F)c(F)c(F)c1S(=O)(=O)Nc1ccc(OC)c(F)c1 [Compound I-85, 2-ethoxy-3,4,5,6-tetrafluoro-N-(3-fluoro-4-methoxyphenyl)benzenesulfonamide] | A (<10%) | A (>85%) |
| 0.1 to 1 µM | – | – | CNc1c(F)c(F)c(F)c(F)c1S(=O)(=O)Nc1ccc(OC)c(F)c1 [Compound I-86, 2,3,4,5-tetrafluoro-N-(3-fluoro-4-methoxyphenyl)-6-(methylamino)benzenesulfonamide] | A (<10%) | A (>85%) |
| – | – | – | COc1ccc(CNc2c(F)c(F)c(F)c(F)c2S(=O)(=O)Nc2ccc(OC)c(F)c2)cc1 [Compound I-87, 2,3,4,5-tetrafluoro-N-(3-fluoro-4-methoxyphenyl)-6-((4-methoxybenzyl)amino)benzenesulfonamide] | A (<10%) | A (>85%) |
| – | – | – | COc1ccc(NS(=O)(=O)c2c(N)c(F)c(F)c(F)c2F)cc1F [Compound I-88, 2-amino-3,4,5,6-tetrafluoro-N-(3-fluoro-4-methoxyphenyl)benzenesulfonamide] | A (<10%) | A (>85%) |
| 1 to 10 µM | – | – | O=S(=O)(Nc1ccccc1)c1c(F)c(F)c(F)c(F)c1OC1CC1 [Compound I-95, 2-cyclopropoxy-3,4,5,6-tetrafluoro-N-phenylbenzenesulfonamide] | – | – |
| 0.1 to 1 µM | – | – | O=S(=O)(Nc1ccc(F)cc1)c1c(F)c(F)c(F)c(F)c1OC1CC1 [Compound I-96, 2-cyclopropoxy-3,4,5,6-tetrafluoro-N-(4-fluorophenyl)benzenesulfonamide] | A (<10%) | A (>85%) |
| > 10 µM | – | – | O=S(=O)(Nc1ccc(F)cc1F)c1c(F)c(F)c(F)c(F)c1OC1CC1 [Compound I-97, 2-cyclopropoxy-N-(2,4-difluorophenyl)-3,4,5,6-tetrafluorobenzenesulfonamide] | – | – |
| > 10 µM | – | – | O=S(=O)(Nc1cc(F)c(F)cc1F)c1c(F)c(F)c(F)c(F)c1OC1CC1 [Compound I-98, 2-cyclopropoxy-3,4,5,6-tetrafluoro-N-(2,4,5-trifluorophenyl)benzenesulfonamide] | – | – |
| > 10 µM | > 10 µM | – | O=S(=O)(Nc1cccc(Cl)c1)c1c(F)c(F)c(F)c(F)c1OC1CC1 [Compound I-99, N-(3-chlorophenyl)-2-cyclopropoxy-3,4,5,6-tetrafluorobenzenesulfonamide] | – | – |
| > 10 µM | > 10 µM | – | N#Cc1cccc(NS(=O)(=O)c2c(F)c(F)c(F)c(F)c2OC2CC2)c1 [Compound I-100, N-(3-cyanophenyl)-2-cyclopropoxy-3,4,5,6-tetrafluorobenzenesulfonamide] | – | – |
| > 10 µM | – | – | N#Cc1ccc(NS(=O)(=O)c2c(F)c(F)c(F)c(F)c2OC2CC2)cc1 [Compound I-101, N-(4-cyanophenyl)-2-cyclopropoxy-3,4,5,6-tetrafluorobenzenesulfonamide] | – | – |
| 0.1 to 1 µM | > 10 µM | – | COC(=O)c1ccc(NS(=O)(=O)c2c(F)c(F)c(F)c(F)c2OC2CC2)cc1 [Compound I-102, methyl 4-((2-cyclopropoxy-3,4,5,6-tetrafluorophenyl)sulfonamido)benzoate] | – | – |
| > 10 µM | – | – | O=S(=O)(Nc1ccc(Oc2ccccc2)cc1)c1c(F)c(F)c(F)c(F)c1OC1CC1 [Compound I-103, 2-cyclopropoxy-3,4,5,6-tetrafluoro-N-(4-phenoxyphenyl)benzenesulfonamide] | – | – |
| > 10 µM | – | – | O=S(=O)(Nc1cccc2ccccc12)c1c(F)c(F)c(F)c(F)c1OC1CC1 [Compound I-104, 2-cyclopropoxy-3,4,5,6-tetrafluoro-N-(naphthalen-1-yl)benzenesulfonamide] | – | – |
| 1 to 10 µM | 1 to 10 µM | – | C#CCN(c1ccc(OC)c(F)c1)S(=O)(=O)c1c(F)c(F)c(F)c(F)c1OC1CC1 [Compound I-124, 2-cyclopropoxy-3,4,5,6-tetrafluoro-N-(3-fluoro-4-methoxyphenyl)-N-(prop-2-yn-1-yl)benzenesulfonamide] | – | – |
| 1 to 10 µM | > 10 µM | – | CN(C)S(=O)(=O)c1c(F)c(F)c(F)c(F)c1OCCF [Compound I-125, 2,3,4,5-tetrafluoro-6-(2-fluoroethoxy)-N,N-dimethylbenzenesulfonamide] | – | – |

| SMILES | IC50 (MV4-11 cells) | IC50 (K562 cells) | IC50 (MOLM-13 cells) | % Inhibition (tubulin) | % D.O.P. (tubulin) |
| --- | --- | --- | --- | --- | --- |
| COc1ccc(NS(=O)(=O)c2c(F)c(F)c(F)c(F)c2OC2CCC2)cc1F [Compound I-69, 2-cyclobutoxy-3,4,5,6-tetrafluoro-N-(3-fluoro-4-methoxyphenyl)benzenesulfonamide] | 0.1 to 1 µM | – | – | A (<10%) | A (>85%) |
